{
  "source": "patent US20110166112A1",
  "about": "“METHOD FOR STIMULATING PLATELET PRODUCTION” (Eisai, Inc., priority 2009, published 2011)",
  "system": "subjects with chronic ITP",
  "experiment": "Treatment-emergent bleeding events (WHO Bleeding Scale; Kaplan-Meier time to first bleeding event)",
  "type": "in vivo, human",
  "source_text": "As used herein, the term “bleeding” refers to any bleeding, as measured by the World Health Organization's Bleeding Scale (e.g., Grade 0=no bleeding; Grade 1=petechial bleeding; Grade 2=clinical significant mild blood loss; […]=gross (severe) blood loss, requiring transfusion; Grade 5=debilitating blood loss, retinal or cerebral associated with fatality). In some embodiments, the bleeding may be due to a low platelet count.\nBleeding Events. During the combined study period, 43 (67.2%) of the 64 subjects reported a treatment-emergent bleeding event (Table 23). Gingival bleeding was the most frequently reported bleeding event, occurring in 7 subjects (10.9%). All were grade 1 (n=6) or grade 2 (n=1) and none were considered to be related to study drug.\nUsing Kaplan-Meier methods, the estimated median time to the first bleeding event was 8 weeks (95% CI: 4.7-15.3 weeks) after initiation of E5501 (FIG. 5).",
  "key": {"[1]": {"settings": "Lower ⅓ dose (2.5-<8.85 mg), N=22"}, "[2]": {"settings": "Middle ⅓ dose (≧8.85-<13.5 mg), N=22"}, "[3]": {"settings": "Upper ⅓ dose (≧13.5-≦25.7 mg), N=20"}},
  "data": [
    {"smiles": "O=C(Nc1nc(-c2cc(Cl)cs2)c(N2CCN(C3CCCCC3)CC2)s1)c1cnc(N2CCC(C(=O)O)CC2)c(Cl)c1", "note": "[E5501, 1-(3-chloro-5-{[4-(4-chlorothiophen-2-yl)-5-(4-cyclohexylpiperazin-1-yl)thiazol-2-yl]carbamoyl}pyridine-2-yl)piperidine-4-carboxylic acid]", "values": [
      {"measurement": "Any TE bleeding event, % of subjects", "setting": "E5501 Total, N=64", "result": "(67.2) %"},
      {"measurement": "Any TE bleeding event, n of subjects", "setting": "E5501 Total, N=64", "result": 43},
      {"measurement": "TE bleeding event, highest toxicity Grade 1, % of subjects", "setting": "E5501 Total, N=64", "result": "(45.3) %"},
      {"measurement": "TE bleeding event, highest toxicity Grade 1, n of subjects", "setting": "E5501 Total, N=64", "result": 29},
      {"measurement": "TE bleeding event, highest toxicity Grade 2, % of subjects", "setting": "E5501 Total, N=64", "result": "(17.2) %"},
      {"measurement": "TE bleeding event, highest toxicity Grade 2, n of subjects", "setting": "E5501 Total, N=64", "result": 11},
      {"measurement": "TE bleeding event, highest toxicity Grade 3, % of subjects", "setting": "E5501 Total, N=64", "result": "(4.7) %"},
      {"measurement": "TE bleeding event, highest toxicity Grade 3, n of subjects", "setting": "E5501 Total, N=64", "result": 3},
      {"measurement": "TE bleeding event, highest toxicity Grade 4, % of subjects", "setting": "E5501 Total, N=64", "result": "(1.6) %"},
      {"measurement": "TE bleeding event, highest toxicity Grade 4, n of subjects", "setting": "E5501 Total, N=64", "result": 1},
      {"measurement": "TE bleeding event, highest toxicity Grade 5, n of subjects", "setting": "E5501 Total, N=64", "result": 0},
      {"measurement": "estimated median time to the first bleeding event", "setting": "Kaplan-Meier, after initiation of E5501, 95% CI: 4.7-15.3 weeks", "result": 8, "unit": "weeks"},
      {"measurement": "Any TE bleeding event, % of subjects", "setting": "[1]", "result": "(68.2) %"},
      {"measurement": "Any TE bleeding event, n of subjects", "setting": "[1]", "result": 15},
      {"measurement": "TE bleeding event, highest toxicity Grade 1, % of subjects", "setting": "[1]", "result": "(50.0) %"},
      {"measurement": "TE bleeding event, highest toxicity Grade 1, n of subjects", "setting": "[1]", "result": 11},
      {"measurement": "TE bleeding event, highest toxicity Grade 2, % of subjects", "setting": "[1]", "result": "(9.1) %"},
      {"measurement": "TE bleeding event, highest toxicity Grade 2, n of subjects", "setting": "[1]", "result": 2},
      {"measurement": "TE bleeding event, highest toxicity Grade 3, % of subjects", "setting": "[1]", "result": "(4.5) %"},
      {"measurement": "TE bleeding event, highest toxicity Grade 3, n of subjects", "setting": "[1]", "result": 1},
      {"measurement": "TE bleeding event, highest toxicity Grade 4, % of subjects", "setting": "[1]", "result": "(4.5) %"},
      {"measurement": "TE bleeding event, highest toxicity Grade 4, n of subjects", "setting": "[1]", "result": 1},
      {"measurement": "TE bleeding event, highest toxicity Grade 5, n of subjects", "setting": "[1]", "result": 0},
      {"measurement": "Any TE bleeding event, % of subjects", "setting": "[2]", "result": "(63.6) %"},
      {"measurement": "Any TE bleeding event, n of subjects", "setting": "[2]", "result": 14},
      {"measurement": "TE bleeding event, highest toxicity Grade 1, % of subjects", "setting": "[2]", "result": "(40.9) %"},
      {"measurement": "TE bleeding event, highest toxicity Grade 1, n of subjects", "setting": "[2]", "result": 9},
      {"measurement": "TE bleeding event, highest toxicity Grade 2, % of subjects", "setting": "[2]", "result": "(13.6) %"},
      {"measurement": "TE bleeding event, highest toxicity Grade 2, n of subjects", "setting": "[2]", "result": 3},
      {"measurement": "TE bleeding event, highest toxicity Grade 3, % of subjects", "setting": "[2]", "result": "(9.1) %"},
      {"measurement": "TE bleeding event, highest toxicity Grade 3, n of subjects", "setting": "[2]", "result": 2},
      {"measurement": "TE bleeding event, highest toxicity Grade 4, n of subjects", "setting": "[2]", "result": 0},
      {"measurement": "TE bleeding event, highest toxicity Grade 5, n of subjects", "setting": "[2]", "result": 0},
      {"measurement": "Any TE bleeding event, % of subjects", "setting": "[3]", "result": 70.0, "unit": "%"},
      {"measurement": "Any TE bleeding event, n of subjects", "setting": "[3]", "result": 14},
      {"measurement": "TE bleeding event, highest toxicity Grade 1, % of subjects", "setting": "[3]", "result": 40.0, "unit": "%"},
      {"measurement": "TE bleeding event, highest toxicity Grade 1, n of subjects", "setting": "[3]", "result": 8},
      {"measurement": "TE bleeding event, highest toxicity Grade 2, % of subjects", "setting": "[3]", "result": 30.0, "unit": "%"},
      {"measurement": "TE bleeding event, highest toxicity Grade 2, n of subjects", "setting": "[3]", "result": 6},
      {"measurement": "TE bleeding event, highest toxicity Grade 3, n of subjects", "setting": "[3]", "result": 0},
      {"measurement": "TE bleeding event, highest toxicity Grade 4, n of subjects", "setting": "[3]", "result": 0},
      {"measurement": "TE bleeding event, highest toxicity Grade 5, n of subjects", "setting": "[3]", "result": 0},
      {"measurement": "subjects with a clinically significant, grade 3 or 4 bleeding event", "setting": "combined study period", "result": "Four"},
      {"measurement": "subjects reporting a treatment-emergent bleeding event", "setting": "combined study period, 64 subjects", "result": 67.2, "unit": "%"}
    ]}
  ]
}
